# Test results as given in PubChem BioAssay AID1399 (The Scripps Research Institute Molecular Screening Center, 2008).
# Calls of active or inactive are those of the source. Cut-off not given; nearly all actives show IC50 up to about 8.9 µM.
# Target: Signal transducer and activator of transcription 3 (Homo sapiens) (UniProt P40763)
# Assay: STAT3 reporter inhibitors, potency, dose response, cell-based (AID 1399)
# Details: human cell STAT3 reporter inhibition
row,Compound,IC50
1,Cn1c(CN2CCCCC2)nc2cc(NC(=O)c3cccc(Br)c3)ccc21,4.55 µM
2,O=C(Nc1ccncc1)c1ccc(-c2ccccc2)cc1,2.16 µM
3,Cc1nn2cc(-c3ncc(C(F)(F)F)cc3Cl)cnc2c1Br,inactive
4,Cc1ccc(-n2ncc3c(SCc4cccnc4)ncnc32)c(C)c1,5.76 µM
5,CCOC(=O)C1=C(Cc2ccc(C)cc2)C(=O)c2ccccc2C1=O,7.04 µM
6,COc1ccc2nc3c(cc2c1)c(NC(=O)c1cccs1)nn3CC(C)C,3.75 µM
7,C[C@H]1O[C@@H](O[C@H]2[C@@H](O)C[C@H](O[C@H]3[C@@H](O)C[C@H](O[C@H]4CC[C@@]5(C)[C@H](CC[C@@H]6[C@@H]5CC[C@]5(C)[C@@H](C7=CC(=O)OC7)CC[C@]65O)C4)O[C@@H]3C)O[C@@H]2C)C[C@H](O)[C@@H]1O,0.7 µM
8,COc1cccc(-c2cc(C(=O)Nc3cccc(O)c3)no2)c1,4.99 µM
9,CCOC(=O)Cc1csc(SCC(=O)c2c(N)n(CC(C)C)c(=O)n(C)c2=O)n1,3.7 µM
10,Cc1nc2ccccc2cc1OCc1ccc(F)cc1,3.47 µM
11,Cc1ccc(S(=O)(=O)N(C)c2ccc(C(=O)N3CCN(Cc4ccc5c(c4)OCO5)CC3)cc2)cc1,6.17 µM
12,O=S(=O)(c1ccc2c(c1)OCCO2)N1CCC(c2nc3ccccc3s2)CC1,6.73 µM
13,O=C(Nc1ccc(Oc2ccccc2)cc1)C1CCN(c2c3c(nc4ncnn24)CCC3)CC1,6.45 µM
14,COc1ccc(CC(=O)Nc2cccc(SC)c2)cc1OC,6.37 µM
15,O=c1c2c(nc3n1CCCCC3)sc1c(O)cccc12,7.42 µM
16,O=C(Nc1ccc(Oc2ccccc2)cc1)c1cnc2n(c1=O)CCS2,1.61 µM
17,CCCCCCCc1ccc(-c2ccc(O)cc2)nc1,3.26 µM
18,CCCCOc1ccc(C(=O)Nc2ccncc2)cc1,2.11 µM
19,COc1ccc(Br)cc1/C(C)=N/NC1=NCCN1,5.44 µM
20,O=C(C1CCN(c2nc3ccc(Br)cc3s2)CC1)N1CCC2(CC1)OCCO2,2.79 µM
21,O=C(Nc1cccc(O)c1)C(=O)Nc1ccccn1,3.7 µM
22,CCOC(=O)c1ccc(NC(=O)c2ccc(CN3CCOCC3)cc2)cc1,2.9 µM

row,Compound,IC50
1,COC(=O)c1nn(-c2ccc3c(c2)CCN3C(C)=O)cc1O,1.29 µM
2,Cc1cc(OCC(=O)Nc2ccncc2)cc(C)c1Br,3.18 µM
3,COc1ccc2cc(-c3cc(C(=O)OCC(=O)Nc4c(C)n(C)n(-c5ccccc5)c4=O)c4ccccc4n3)ccc2c1,4.63 µM
4,NNC(=O)c1cccc(COc2ccccc2Br)c1,3.25 µM
5,CCOc1ncccc1C(=O)OCC(=O)Nc1ccc(-c2nc3ccc(C)cc3s2)cc1,3.25 µM
6,Cc1ccc(-n2nnnc2SCn2nnc3ccccc3c2=O)c(C)c1,5.32 µM
7,CCOC(=O)c1oc2ccc(S(=O)(=O)Nc3ccc4c(c3)n(C)c(=O)n4C)cc2c1C,5.04 µM
8,O=C1c2ccc(Br)cc2C(=O)N1c1ccc(Cc2ccncc2)cc1,5.65 µM
9,O=C(Nc1ccn(Cc2ccccc2F)n1)c1ccc(COc2ccc(Br)cc2)cc1,2.9 µM
10,COc1ccc(-c2nn(C)c(=O)c3ccccc23)cc1NC(=O)COc1ccc(C)cc1,5.06 µM
11,CC(=O)c1cn(CC(=O)Nc2ccccc2C)c2ccccc12,5.07 µM
12,CC1CCCCC1NS(=O)(=O)c1ccc(S(=O)(=O)NCc2ccncc2)cc1 (stereo not given),3.28 µM
13,c1ccc(CC2CCN(c3ncnc4sccc34)CC2)cc1,1.61 µM
14,CCOc1cc(C(=S)N2CCOCC2)ccc1OS(=O)(=O)c1ccc(NC(C)=O)cc1,5.23 µM
15,O=C(CSc1ccc2ccccc2c1)Nc1ccncc1,7.66 µM
16,CC(C)Cn1c(N)c(C(=O)CSc2ccccc2)c(=O)n(C)c1=O,5.57 µM
17,Cc1csc(NC(=O)c2cc3c(s2)CCCC3)n1,3.82 µM
18,Cc1cccc(C)c1NC(=O)N1CCN(c2nc3ccccc3s2)CC1,4.48 µM
19,O=C(Nc1cccc(O)c1)c1noc2c1CCc1ccccc1-2,3.55 µM
20,Cc1cc(C)n(Cc2ccc(NC(=O)c3ccc(COc4ccccc4Br)cc3)cc2)n1,7.64 µM
21,O=C(Nc1ccc(Cc2ccncc2)cc1)c1ccc(S(=O)(=O)N2CCOCC2)cc1,4.31 µM
22,O=C(Nc1cccc(Cl)c1)Nc1ccnc(-c2cccnc2)n1,3.2 µM

row,Compound,IC50
1,CC(=O)N1CCc2cc(S(=O)(=O)NC3CCCc4ccccc43)ccc21 (stereo not given),5.12 µM
2,Cc1nc2sccn2c1-c1csc(NCc2ccccc2)n1,4.37 µM
3,COc1ccc(CC(=O)Nc2cccc(-c3nnc(-c4cccc(C)c4)o3)c2)cc1OC,3.32 µM
4,c1ccc(C(Cc2nc(-c3ccncc3)no2)c2ccccc2)cc1,5.05 µM
5,O=C(Oc1cccc(Nc2ncnc3ccccc23)c1)c1ccccc1Cl,4.44 µM
6,CC[n+]1ccccc1/C=C/c1ccc(N(C)C)cc1,2.94 µM
7,Cc1ccc(Cl)cc1N1CCN(C(=O)COc2ccc(S(=O)(=O)NC(C)C)cc2)CC1,7.8 µM
8,CN(C)S(=O)(=O)Oc1cccc(C(=O)Nc2ccc(Cl)cc2)c1,5.23 µM
9,CN1/C(=C\C(=O)C[n+]2ccc3ccccc3c2)C(C)(C)c2ccccc21,1.74 µM
10,O=C(Nc1ccc(N2CCN(C(=O)c3ccco3)CC2)c(Cl)c1)c1cc2ccccc2o1,8.95 µM
11,COc1cc(OC)cc(C(=O)Nc2ccc(-c3nc4ccccc4o3)cc2)c1,inactive
12,Cc1ccccc1OCCCCn1cnc2ccccc21,5.73 µM
13,Cc1cccc(N2CCN(C(=O)CSCc3c(C)noc3C)CC2)c1C,4.55 µM
14,O=C(Nc1ccn(Cc2ccccc2F)n1)c1ccc(COc2ccccc2Cl)cc1,5.12 µM
15,Nc1c(C(=O)NC2CCCCC2)nsc1C(=O)OCC(=O)NC1CCCCC1,4.22 µM
16,O=C(COC(=O)c1n[nH]c2ccccc12)Nc1ccc(S(=O)(=O)N2CCCC2)cc1,4.5 µM
17,O=C(Nc1nc(-c2ccc(Cl)s2)cs1)c1ccncc1,4.01 µM
18,C[C@H]1CCC[C@@H](O)CCC/C=C/c2cc(O)cc(O)c2C(=O)O1,5.25 µM
19,CN(C)S(=O)(=O)c1ccc(C(=O)Nc2nc(-c3cccs3)cs2)cc1,8.64 µM
20,Nc1cc(-c2ccccc2)nn1Cc1ccc(Cl)cc1,6.76 µM
21,CCOC(=O)c1sc2nc(CC(=O)OC)nc(NCc3ccc(Cl)cc3)c2c1C,7.66 µM
22,NC(=O)C1CCN(c2ccc(S(=O)(=O)N3CCC(Cc4ccccc4)CC3)cn2)CC1,4.93 µM

row,Compound,IC50
1,Clc1ccc(CSc2nnc(Cn3cnc4ccccc43)o2)cc1,5.02 µM
2,CNc1ccccc1C(C)(C)c1cc(-c2ccc(F)cc2)no1,5.41 µM
3,O=C(Oc1ccccc1N1C(=O)C2CCCCC2C1=O)c1ccccc1 (stereo not given),7.93 µM
4,CCC(C)NC(=S)Nc1ccc(C(=O)OC)cc1 (stereo not given),4.35 µM
5,CCCNC(=O)c1ccc(-c2nc3ccccc3s2)s1,5.06 µM
6,O=C1C2C3c4ccccc4C(c4ccccc43)C2c2nc3ccccc3n21 (stereo not given),3.23 µM
7,CCCOc1ccc(CSc2nc3ccccc3[nH]2)cc1,6.53 µM
8,COc1ccccc1OCC(=O)c1[nH]c(C)c(C(C)=O)c1C,5.33 µM
9,O=C(Nc1nccs1)c1ccc(S(=O)(=O)NCC2CCCCC2)cc1,3.03 µM
10,COc1ccc(/C=N/NC(=S)Nc2ccccc2[N+](=O)[O-])cc1O,1.74 µM
11,Cc1ccc(N2C(=O)c3ccccc3C2O)nc1 (stereo not given),5.98 µM
12,COC(=O)c1cccc(NC(=O)CSc2nc3cccnc3n2C)c1,5.35 µM
13,CCC(C)(C)c1ccc(OCCCC[n+]2cccc(C)c2)c(C(C)(C)CC)c1,4.09 µM
14,O=C(Nc1ccc(N2CCOCC2)nc1)c1ccc(C(F)(F)F)cc1,3.4 µM
15,CC(=O)Nc1ccc(-c2csc(Nc3ccc(Cl)cn3)n2)cc1,6.34 µM
16,Cc1cc(OCC(=O)Nc2ccncc2)ccc1Br,6.7 µM
17,Cc1cc(NC(=O)c2cc(-c3cccs3)on2)nn1Cc1ccc(Cl)cc1,5.48 µM
18,CCc1c(C)c2ccc(OCC(=O)OC(C)C)c(C)c2oc1=O,6.19 µM
19,Cc1nc2ccccc2cc1OCc1ccccc1,4.76 µM
20,O=C(Nc1ccncc1)c1ccc2c(c1)C(=O)N(C1CCCCC1)C2=O,2.42 µM
21,Cc1ccc2c(C)nc(Nc3nc(CSc4nc5ccccc5[nH]4)cc(=O)[nH]3)nc2c1,5.32 µM
22,Cn1c(=O)oc2cc(S(=O)(=O)N3CCCC(C(=O)N4CC=C(c5ccccc5)CC4)C3)ccc21 (stereo not given),5.41 µM

row,Compound,IC50
1,CSc1ccc(NC(=O)N2CCN(c3nc4ccccc4s3)CC2)cc1,5.96 µM
2,C[C@H]1O[C@@H](O[C@H]2[C@@H](O)C[C@H](O[C@H]3[C@@H](O)C[C@H](O[C@H]4CC[C@@]5(C)[C@H](CC[C@@H]6[C@@H]5C[C@@H](O)[C@]5(C)[C@@H](C7=CC(=O)OC7)CC[C@]65O)C4)O[C@@H]3C)O[C@@H]2C)C[C@H](O)[C@@H]1O,1.86 µM
3,Cc1nc(CNS(=O)(=O)c2ccc(Oc3ccccc3)cc2)cs1,5.54 µM
4,CN1/C(=C\C(=O)C[n+]2ccc(C(=O)c3ccccc3)cc2)C(C)(C)c2ccccc21,5.22 µM
5,Clc1ccc(OCc2cc(-c3ccccc3)no2)c(Cl)c1,8.02 µM
6,Nc1cc(-c2ccc(Br)cc2)nn1Cc1ccccc1,4.05 µM
7,CC(=O)c1ccc(N=Nc2ccc(C)cc2)cc1,4.77 µM
8,C[C@@H]1O[C@@H](O[C@H]2C[C@@H](O)[C@]3(CO)[C@H]4[C@H](O)C[C@]5(C)[C@@H](C6=CC(=O)OC6)CC[C@]5(O)[C@@H]4CC[C@]3(O)C2)[C@H](O)[C@H](O)[C@H]1O,1.15 µM
9,COc1ccc(C)cc1-n1nnnc1SCn1nnc2ccccc2c1=O,7.58 µM
10,O=C(NC1CC1)c1cc2c(s1)-c1ccccc1OC2,3.83 µM
11,O=C1CCCN1c1ccc(S(=O)(=O)N2CCC(c3ccccc3)CC2)cc1,4.5 µM
12,O=C(Nc1cccc(S(=O)(=O)Nc2ccccc2Cl)c1)c1ccc(Cl)nc1,5.13 µM
13,O=C1C2C3c4ccccc4C(c4ccccc43)[C@@H]2c2nc3ccccc3n21 (stereo not given in full),4.51 µM
14,COc1ccc(NS(=O)(=O)c2ccc(NC(=O)c3ccc(N(C)S(C)(=O)=O)cc3)cc2)cc1,3.99 µM
15,CC1CCC2C(=O)N(c3ccccc3OC(=O)c3ccccc3)C(=O)C2C1 (stereo not given),9.22 µM
16,Cc1cccc(-c2nc3cc(NC(=O)C4CCCO4)ccc3o2)c1 (stereo not given),6.32 µM
17,CCCOc1ccc(/C=N/NC(=S)Nc2ccccc2[N+](=O)[O-])c(O)c1,1.05 µM
18,COc1ccc(/C=N/NC(=S)Nc2cccc(C(=O)O)c2)cc1,4.56 µM
19,O=C(COc1ccc2ccccc2c1)Nc1ccncc1,6.11 µM
20,Cc1ccc(-c2cn3cc([N+](=O)[O-])ccc3n2)cc1,4.09 µM
21,COC(=O)Oc1ccc(/C=N/NC(=O)CSCc2ccccc2Br)cc1OC,2.07 µM
22,Clc1ccc2ncc(-c3nnnn3-c3ccccc3)c(-c3ccccc3)c2c1,8.01 µM
